The text below walks through data of patent publication US7601687B2, “Mechanism for identifying drugs for the treatment of type II diabetes” (BioCrine AB, priority 2006, dated 2009).

This experiment concerns rat insulin-I gene promoter. The experiment in a line: On-line monitoring of insulin promoter-driven DsRed/GFP expression (prIns1.DsRed) in transfected HIT-T15 cells and islet cells. It counts as cell-based, hamster (HIT-T15), rat (islet cells). As to conditions: for effect of inhibitor on insulin-stimulated insulin gene transcription / insulin promoter activity: 25 μM LY294002, 10 nM rapamycin, 400 nM AC, 100 μM HNMPA-(AM)3. The text has this: Construction of prIns1.GFP has been described earlier (Leibiger et al., 1998a). Vector prIns1.DsRed was generated by exchanging the EGFP-expression cassette versus the DsRed-expression cassette obtained from pDsRed1-1 (Clontech). Plasmid prβGK.GFP (i.e. prβGK-278.GFP) was generated by exchanging the CAT-SV40pA-expression cassette of prβGK-278.CAT (Leibiger et al., 1994a) versus the EGFP-bGHpA-expression cassette obtained from pRcCMVI.GFP (Moede et al., 1999). […] All vector constructions were verified by DNA sequence analysis. Constructs for expression of the human Insulin Receptor A and B types, pCMVHIR(A) and pCMVHIR(B) and the control plasmid pCMVstop were kindly provided by Dr. A. Ullrich (Max-Planck-Institute for Biochemistry, Martinsried, Germany). Expression constructs pCMV5.PKBα, pCMV5.PKBαΔ308/437, pCMV5.PDK1 and pCMV5.PDK1-antisense were kindly provided by Drs. P. Cohen and D. R. Alessi (MRC Phosphorylation Unit, University of Dundee, UK).
Insulin-producing HIT-T15 cells were obtained from ATCC. HIT cells were reported to show glucose responsiveness at subphysiological concentrations between 0.1 and 2 mM (Sharma et al., 1995). HIT cells were grown in RPMI 1640 medium supplemented with 100 units/ml penicillin, 100 μg/ml streptomycin, 2 mM glutamine and 10% fetal calf serum at 5% CO2 and 37° C. Pancreatic islets were isolated from normally fed male Wistar rats and from mice by collagenase digestion. Isolated islets were incubated overnight at 5% CO2 and 37° C. in RPMI 1640 medium, supplemented as described above. Transfection of HIT-T15 and islet cells was performed overnight by the lipofectamine technique in RPMI 1640 medium, without serum and antibiotics. For on-line monitoring, cells were grown and transfected on 24-mm glass coverslips. Following transfection, HIT cells were cultured for 12-18 h in RPMI 1640 medium containing 0.1 mM glucose, 10% fetal calf serum and supplemented as above. Before stimulation, islets and islet cells were incubated for 2 h in RPMI 1640 medium, supplemented as above but containing 3 mM glucose. All expression constructs were prepared using the Qiagen Plasmid Maxi Kit (Qiagen), except those used to produce the adenoviruses which where purified by ultracentrifugation via a CsCI-gradient (as described in Sambrook et al, 1989).
All experiments were performed in RPMI 1640 medium, supplemented as above. Protein kinase inhibitors, antibodies or nifedipine were added to the culture medium 30 min prior to stimulation and were kept in the medium throughout stimulation. After stimulation islets, islet cells and HIT cells were cultured further at substimulatory glucose concentrations (0.1 mM for HIT cells and 3 mM for islets and islet cells). For RNA-analysis, islets and cells were harvested 60 min after start of stimulation, if not indicated otherwise. For analysis of protein kinase activities or tyrosine phosphorylation, cells were harvested immediately following stimulation.
Detection of fluorescence by digital imaging fluorescence microscopy was performed as described previously (Leibiger et al., 1998a; Leibiger et al., 1998b). Briefly, transfected cells were grown on 24-mm glass coverslips. After stimulation the coverslips were placed into a perifusion chamber which was mounted on an inverted microscope (Zeiss Axiovert 135TV). Temperature was kept at 37° C. and the cells were perfused with RPMI 1640 medium. The objective lens used was a Zeiss-Fluar ×40/1.30 oil Imm Korr. Fluorescence imaging was performed with a cooled charged-coupled device camera (CH250 with KAF 1400, Photometrics, Tucson, Ariz.) connected to an imaging system (Inovision) with fluorescence excitation from a SPEX fluorolog-2 CM1T11I spectrofluorometer (Spex Industries). The following filter-settings were used: for GFPs65T: excitation at 485 nm, a 505 nm dicroic mirror and an emission band-pass filter of 500-530 nm; for DsRed: excitation at 558 nm, a 565 nm dicroic mirror and a 580 nm long-pass filter for emission […]

Consider `CC(=O)OCOC(c1ccc2ccccc2c1)P(=O)(OCOC(C)=O)OCOC(C)=O` (stereo not shown) [HNMPA-(AM)3], for which, where the note is “5 mU/ml insulin”, the “effect of inhibitor on insulin-stimulated insulin gene transcription / insulin promoter activity” value was “abolished”.
The same measure, in the same setting: to “autocamtide-2 related inhibitory peptide” belongs “abolished”.
Turning to insulin, for the setting “5 mU/ml insulin, co-transfected cells”, the “insulin promoter-driven DsRed fluorescence upon insulin stimulation” value is reported as “elevation”. Further, the “amount of exogenous insulin necessary to trigger insulin gene promoter activity” value (transfected HIT-T15 cells, supplemented culture medium (FIG. 4B)) is recorded as 5-10 μU insulin per ml.
